What was measured:
[1] = MTT test of cytotoxicity on HepG2.2.15 cells; assay type: cell-based; conditions: human, read-out: CC50 (μM) (HepG2. 2. 15)
Procedure: (§1) A tube of frozen HepG2.2.15 cells taken from a liquid nitrogen tank was quickly placed into a water bath at 42° C. and shaken to thaw. DMEM complete medium (fetal bovine serum 10%, G418 380 μg/mL, Penicillin 100 U/ml, Streptomycin 100 U/ml) was used for cell culturing at conditions of 37° C. and 5% CO2. The number of cell passage in normal growing cells was once per 2-3 days.
Cytotoxicity of the compound on HepG2.2.15 cells was tested with the MTT colorimetric assay established by Mosmann. After continuous incubation for 72 h, 10 μL MTT was added to each well. Four hours later, the supernatant was discarded and 200 μL DMSO was added to each well. The OD value in each well was read using a microplate reader (measurement wavelength 490 nm, reference wavelength 630 nm). The result was recorded and the percentage inhibition of HepG2.2.15 cells by each compound was calculated:
The half toxic concentration (TC50) of the medicament on cells was calculated according to the percentage inhibition of the cell by the medicament.

[2] = MTS test of effects of the compound on cell survival; assay type: cell-based; conditions: human, 293T cells
Procedure: Then, 20 μL freshly prepared mixture of MTS/PMS was added to each well and after 4 h incubation in the incubator at 37° C. with 5% CO2, the color was developed. The light absorption (OD) of each well at wavelengths 490 nm and 650 nm (background) was detected on an enzyme linked immuno analyzer, and the survival rate of cells was calculated.

VSVG/HIV-luc (NL4-3) = assay: microbe, parasite or virus in culture; assay type: cell-based, HIV-1; conditions: Human immunodeficiency virus 1, NL43, HEK-293T; for EC50: 48 h, read-out: EC50 (μM) VSVG/HIV-luc (NL4-3); for inhibition at 10 µM: read-out: Inhibitory activity at 10 μM
HBsAg = assay: In vitro inhibition of HBV: HBsAg in HepG2.2.15 cells by ELISA; assay type: cell-based; conditions: Hepatitis B virus, HepG2.2.15, read-out: IC50 (μM) (HBsAg)
Procedure: as §1
(§2) The effect of a compound on HBV surface antigen s and antigen e in the cell culture was detected using a screening concentration lower than the half toxic concentration of the compound. HepG2.2.15 cells in logarithmic growth phase were selected and digested with trypsin into single cell suspension, and were seeded to a 24-well plate at a concentration of 2×10^4/mL, 1 mL per well. Media of different medicament concentrations were added, three wells for each concentration, and cells added with complete medium were set as normal control. Cell supernatants and cells at day 3, day 6 and day 9 were collected and kept under −20° C. The intracellular and extracellular expressions of e antigen and surface antigen at day 3, day 6 and day 9 were determined by ELISA.
(§3) 2.4 Effect of the Compound on HBeAg and HBsAg in HepG2.2.15 Cell Supernatant Detected by ELISA
(§4) The instructions of the kit were followed;
(§5) Measurement: OD value of each well was read from microplate reader using dual wavelength 450/630 nm.
(§6) Result determination: The Cutoff value was first calculated according to equation: COV=average OD of negative control×2.1. Then, if a sample had OD≧COV, the result was determined as positive, or if a sample had OD≦COV, the result was determined as negative.

HBeAg = assay: In vitro inhibition of HBV: HBeAg in HepG2.2.15 cells by ELISA; assay type: cell-based; conditions: Hepatitis B virus, HepG2.2.15, read-out: IC50 (μM) (HBeAg)
Procedure: as §1, §2, §3, §4, §5, §6

**Q.** Which results are given for `COC(=O)[C@H](Nc1ccn([C@@H]2O[C@@](CO)(N=[N+]=[N-])C(O)C2F)c(=O)n1)C(C)C` (some centres unmarked) [Compound 8f]?
**A.** CC50 at 72 h [1]: > 250 µM; CC50 at 44 h [2]: ≥ 25 µM; EC50 (VSVG/HIV-luc (NL4-3)): 4.7 ± 0.1 µM; IC50 (HBsAg): 0.26 µM

**Q.** With `[N-]=[N+]=N[C@]1(CO)O[C@@H](n2ccc(N3CCCC3)nc2=O)C(F)C1O` (some centres unmarked) [Compound 5-05] as the compound, how does the inhibition at 10 µM (VSVG/HIV-luc (NL4-3)) read?
**A.** 31.6 ± 3.6%

**Q.** Which inhibition at 10 µM (VSVG/HIV-luc (NL4-3)) does the source give for `[N-]=[N+]=N[C@]1(CO)O[C@@H](n2cc(-c3ccco3)c(N)nc2=O)C(F)C1O` (some centres unmarked) [Compound 12] here?
**A.** 15.8 ± 4.4%

**Q.** With `COCCCNc1ccn([C@@H]2O[C@@](CO)(N=[N+]=[N-])C(O)C2F)c(=O)n1` (some centres unmarked) [Compound 5-23] as the compound, how does the inhibition at 10 µM (VSVG/HIV-luc (NL4-3)) read?
**A.** 10.4 ± 3.5%

**Q.** With `Cc1cn([C@H]2C[C@H](N=[N+]=[N-])[C@@H](CO)O2)c(=O)[nH]c1=O` [Zidovudine, reference compound] as the compound, how does the EC50 (VSVG/HIV-luc (NL4-3)) read?
**A.** 0.084 ± 0.0026 µM

**Q.** With `CCCCCNc1ccn([C@@H]2O[C@@](CO)(N=[N+]=[N-])C(O)C2F)c(=O)n1` (some centres unmarked) [Compound 5-24] as the compound, how does the inhibition at 10 µM (VSVG/HIV-luc (NL4-3)) read?
**A.** 33.8 ± 1%

**Q.** With `[N-]=[N+]=N[C@]1(CO)O[C@@H](n2cc(-c3ccco3)c(=O)[nH]c2=O)C(F)C1O` (some centres unmarked) [Compound 10] as the compound, how does the inhibition at 10 µM (VSVG/HIV-luc (NL4-3)) read?
**A.** 15.1 ± 0.8%

**Q.** For `CCCCCCNc1ccn([C@@H]2O[C@@](CO)(N=[N+]=[N-])C(O)C2F)c(=O)n1` (some centres unmarked) [Compound 5-25], which inhibition at 10 µM (VSVG/HIV-luc (NL4-3)) is on record?
**A.** 35 ± 1.7%

**Q.** Which results are given for `[N-]=[N+]=N[C@]1(CO)O[C@@H](n2cc(C(=O)N3CCSCC3)c(=O)[nH]c2=O)C(F)C1O` (some centres unmarked) [Compound 27]?
**A.** CC50 at 72 h [1]: 585 µM; inhibition at 10 µM (VSVG/HIV-luc (NL4-3)): 4.8 ± 1.8%; IC50 (HBsAg): < 0.1 µM

**Q.** For `[N-]=[N+]=N[C@]1(CO)O[C@@H](n2cc3cc(CCO)oc3nc2=O)C(F)C1O` (some centres unmarked) [Compound 16], which inhibition at 10 µM (VSVG/HIV-luc (NL4-3)) is on record?
**A.** 9.9 ± 0.8%

**Q.** For `[N-]=[N+]=N[C@]1(CO)O[C@@H](n2cc(C(=O)N3CCCC3)c(=O)[nH]c2=O)C(F)C1O` (some centres unmarked) [Compound 25], which inhibition at 10 µM (VSVG/HIV-luc (NL4-3)) is on record?
**A.** 16.8 ± 1.2%

**Q.** For `[N-]=[N+]=N[C@]1(CO)O[C@@H](n2ccc(NCC(N)=O)nc2=O)C(F)C1O` (some centres unmarked) [Compound 7j], which CC50 at 72 h [1] is on record?
**A.** 239 µM

**Q.** What about the IC50 (HBeAg) of the same compound?
**A.** 6.16 µM

**Q.** What about the CC50 at 44 h [2] of the same compound?
**A.** ≥ 25 µM

**Q.** And the EC50 (VSVG/HIV-luc (NL4-3))?
**A.** 10 ± 7 µM

**Q.** With `[N-]=[N+]=N[C@]1(CO)O[C@@H](n2ccc(NCC(O)CO)nc2=O)C(F)C1O` (some centres unmarked) [Compound 5-18] as the compound, how does the inhibition at 10 µM (VSVG/HIV-luc (NL4-3)) read?
**A.** 17.8 ± 0.6%

**Q.** Which inhibition at 10 µM (VSVG/HIV-luc (NL4-3)) does the source give for `CCCCCCCNc1ccn([C@@H]2O[C@@](CO)(N=[N+]=[N-])C(O)C2F)c(=O)n1` (some centres unmarked) [Compound 5-26] here?
**A.** 33.9 ± 0.5%

**Q.** With `[N-]=[N+]=N[C@]1(CO)O[C@@H](n2ccc(NCCc3ccc(O)cc3)nc2=O)C(F)C1O` (some centres unmarked) [Compound 5-03] as the compound, how does the CC50 at 72 h [1] read?
**A.** 834 µM

**Q.** And the CC50 at 44 h [2]?
**A.** ≥ 25 µM

**Q.** And the EC50 (VSVG/HIV-luc (NL4-3))?
**A.** 5.7 ± 0.2 µM

**Q.** And the IC50 (HBsAg)?
**A.** < 0.1 µM

**Q.** For `CNNc1ccn([C@@H]2O[C@@](CO)(N=[N+]=[N-])C(O)C2F)c(=O)n1` (some centres unmarked) [Compound 5-31], which inhibition at 10 µM (VSVG/HIV-luc (NL4-3)) is on record?
**A.** 22.8 ± 3.5%

**Q.** With `[N-]=[N+]=N[C@]1(CO)O[C@@H](n2ccc(NCCO)nc2=O)C(F)C1O` (some centres unmarked) [Compound 5-13] as the compound, how does the inhibition at 10 µM (VSVG/HIV-luc (NL4-3)) read?
**A.** 41.7 ± 1.8%

**Q.** With `CCCCCCCCNc1ccn([C@@H]2O[C@@](CO)(N=[N+]=[N-])C(O)C2F)c(=O)n1` (some centres unmarked) [Compound 5-27] as the compound, how does the inhibition at 10 µM (VSVG/HIV-luc (NL4-3)) read?
**A.** 32.3 ± 3.2%

**Q.** Which results are given for `COC(=O)[C@H](Cc1ccccc1)Nc1ccn([C@@H]2O[C@@](CO)(N=[N+]=[N-])C(O)C2F)c(=O)n1` (some centres unmarked) [Compound 8n]?
**A.** CC50 at 72 h [1]: > 250 µM; IC50 (HBeAg): 4.41 µM; CC50 at 44 h [2]: ≥ 25 µM; EC50 (VSVG/HIV-luc (NL4-3)): 5.4 ± 3 µM

**Q.** What does the source list for `COC(=O)[C@H](CO)Nc1ccn([C@@H]2O[C@@](CO)(N=[N+]=[N-])C(O)C2F)c(=O)n1` (some centres unmarked) [Compound 8h]?
**A.** CC50 at 72 h [1]: > 250 µM; CC50 at 44 h [2]: ≥ 25 µM; EC50 (VSVG/HIV-luc (NL4-3)): 6.2 ± 0.6 µM; IC50 (HBsAg): 0.07 µM

**Q.** Which inhibition at 10 µM (VSVG/HIV-luc (NL4-3)) does the source give for `[N-]=[N+]=N[C@]1(CO)O[C@@H](n2ccc(N3CCSCC3)nc2=O)C(F)C1O` (some centres unmarked) [Compound 5-29] here?
**A.** 11.6 ± 0.5%
